l = locked nucleic acid (LNA); d = 2'-deoxy (DNA)
How the values were obtained:
[1] = tested on: A549 cells; assay: EGF assay, A549 cells transfected with oligonucleotide; type: cell-based, human; details: A549, 48 hours after transfection;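 also: values as percent of saline control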
Protocol: (§1) A549 cells (ATCC CCL-185) were cultivated according to the manufacturer's instructions in A549 medium [F-12K Nut Mix (Gibco, 21127-022), 1% penicillin/streptomycin (Gibco: 15140-122), 10% FBS (Gibco 16000-044)].
(§2) Prior to treatment with oligonucleotides the A549 cells were seeded in 96 well plates at 3′000 cells per well in A549 regular medium and grown until 60% confluence. […]
(§3) A549 were cultivated as described in the “Materials and methods” section. At after at 50-60% confluence the oligonucleotides were transfected into the cells using 0.5 μl Lipofectamin (Invitrogen, 11668-019) in 25 μl OptiMEM® (GIBCO 31985062) and 1 ng or 10 ng oligonucleotide in the same volume OptiMEM. The cells were incubated over night at 37° C. The medium was changed using A459 regular medium+10 ng/ml EGF. 48 hours after transfection the medium was collected for EGF measurements and the cells were harvested for ATP measurements.

[2] = tested on: A549 cells; assay: Intracellular ATP assay, A549 cells transfected with oligonucleotide; type: cell-based, human; details: A549, 48 hours after transfection;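 also: ATP as percent of saline control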
Protocol: as §1, §2
Each sample was tested in triplicate.
as §3

[3] = tested on: Wistar Han Crl:WI(Han) male rats; assay: In vivo nephrotoxicity in rats; details: 40 mg/kg on days 1 and 8, assessed day 15, 40 mg/kg
Protocol: Purpose bred Wistar Han Crl:WI(Han) male rats obtained from Charles River Laboratories at 7 to 8 weeks of age were divided into groups of 4 (table 1, exp. A) or 8 (table 1, exp. B) based on body weight and acclimatized for at least 5 days before dosing. The animals were housed under standard environmental conditions ([…], relative humidity 50±20%, a light/dark cycle 12 h/12 h, pelleted food and water ad libitum), were offered enriched environment in an AAALAC accredited facility and were regularly and carefully monitored. All procedures were in accordance with the respective local regulations and according to the animal permissions granted by the Institutional Animal Care and Use Committee. Test compounds were formulated in isotonic sterile saline, sterile filtered (0.22 μm), and dosed at 40 mg/kg on days 1 and 8 (2.5 ml/kg) in the intrascapular region. Control group animals received saline as vehicle control. On day 15 animals were orally administered tap water (10 ml/kg), and urine was collected on ice for 6 hours in metabolic cages. […] On day 15 the rats were sacrificed by an intraperitoneal injection of pentobarbital and exsanguinated. Kidney cortex samples were collected and fixed by immersion in 10% neutral buffered formalin, embedded in paraffin, sectioned to 5 μm and stained with hematoxylin and eosin (H&). The H&E sections were then scanned at 20× magnification using an Aperio ScanScope AT™ (Leica Biosystems) scanner and pictures were then captured via ImageScope™ software from the scanned images. One or more of the following parameters were assessed kidney weight, serum creatinine, urine protein, KIM-1 protein in urine, KIM-1 mRNA, kidney degeneration/regeneration and relative tubulotoxicity grade.

[4] = tested on: PTEC-TERT1 cells; assay: EGF assay, supernatant of PTEC-TERT1 cells; details: for Toxicity grade: from EGF, assay window saline vs toxic reference compound 4-1
Protocol: Prior to treatment with oligonucleotides the PTEC-TERT1 were seeded into collagen I-coated 96-well plates (Corning, 356407) at a density of 40 000 and 20 000 cells/well respectively in PTEC medium and grown until confluence.
(§4) Oligonucleotides were dissolved in PBS and added to the cell culture at the given concentration, such as 10, 30 or 100 μM. The total volume of each well was 100 μl. PBS served as vehicle control.
(§5) When extra cellular markers, like EGF and KIM-1, were analyzed following the oligonucleotide treatment the medium was collected and stored at −20° C. until further analysis. […] The collected medium was stored at −20° C.
For analysis of human EGF, cell supernatants were thawed on ice, diluted 1:2 and 1:10 in sample dilution buffer (BioRad catalog # M60-009RDPD) and analyzed by Luminex®-based ELISA using human EGF beads (Bio-Plex Pro™ Human Cancer Biomarker Panel 2 EGF Set#171BC603M), or followed by analysis using the Bio-Plex® 200 Systems (BioRad) according to the manufacturer's instructions. Data are reported as mean concentrations and standard deviations of triplicate wells.

[5] = tested on: Human primary proximal tubule epithelial cells (PTEC); assay: EGF assay, supernatant of primary PTEC cells
Protocol: Prior to treatment with oligonucleotides the primary PTEC cells were seeded into collagen I-coated 96-well plates (Corning, 356407) at a density of 40 000 and 20 000 cells/well respectively in PTEC medium and grown until confluence.
as §4, §5
For analysis of human EGF, cell supernatants were thawed on ice, diluted 1:2 and 1:10 in sample dilution buffer (BioRad catalog # M60-009RDPD) and analyzed by Luminex®-based ELISA using human EGF beads (Bio-Plex Pro™ Human Cancer Biomarker Panel 2 EGF Set#171BC603M), or followed by analysis using the Bio-Plex® 200 Systems (BioRad) according to the manufacturer's instructions. Data are reported as mean concentrations and standard deviations of triplicate wells. An increase of EGF levels above 200% was considered as predictive for nephrotoxicity.

[6] = tested on: Primary human hepatocytes; assay: EGF assay, culture media of primary human hepatocytes; type: cell-based; details: 10 ng/ml EGF in medium;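 also: values as percent of saline vehicle control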
Protocol: Cryopreserved human hepatocytes were suspended in William's Medium E (WME) without phenol red (Sigma W-1878) supplemented with 10% fetal calf serum, penicillin (100 U/ml), streptomycin (0.1 mg/ml) at a density of approx. 1×10^6 cells/ml and seeded into collagen-coated 96-well plates (Becton Dickinson AG, Allschwil, Switzerland) at a density of 0.4×10^5 cells/well. Cells were pre-cultured for 3 to 4 h allowing for attachment to cell culture plates before start of treatment with oligonucleotides.
Before oligonucleotide treatment the seeding medium was replaced by 90 μl of serum free WME.
The total volume of each well was 100 μl. PBS served as vehicle control.
Human primary hepatocytes were cultivated as described in the “Materials and methods” section with addition of 10 ng/ml of EGF to the medium. At confluence the cells were treated with oligonucleotide as described in the “Materials and methods” section, in concentrations of 10 or 100 μM.
The medium was obtained at day 3, and the EGF level was measured according to the assay described in the “Materials and methods” section.

[7] = tested on: PCSK9 mRNA; assay: Target knock down (PCSK9 mRNA levels) in PTEC-TERT1 cells; type: cell-based, human; details: normalized to PPIB
Protocol: For assessment of the target knock down (PCSK9 mRNA levels) total mRNA was extracted from the cells adding 100 μl of 1× RNA lysis mixture (QuantiGene® Sample Processing Kit, QS0101) directly into the wells according to the manufacturer's instructions. RNA lysis mixtures were kept at −80° C. until analysis. For gene expression analysis, 20 μl of lysates were mixed with an mRNA-capture magnetic beads sets (Panomics QuantiGene® Plex Set catalog #12697), incubated overnight, processed for branched DNA amplification and analyzed according to the manufacturer's instructions (Panomics QuantiGene® Plex Assay kit, QP1015). The PPIB probe was used as housekeeping gene for normalization. Average Fluoresence Intensity (FI) and standard deviation of 3 biological replicates were calculated and normalized on vehicle control. The results are shown in table 11, and represent the average of three identical treatments.

[8] = PTEC-TERT1, 6 days, 10 ng/ml EGF in medium, 25 μM
[9] = PTEC-TERT1, 6 days, 10 ng/ml EGF in medium, 100 μM
[10] = PTEC-TERT1, 6 days, No EGF in Medium, 25 μM
[11] = PTEC-TERT1, 6 days, No EGF in Medium, 100 μM
[12] = PTEC-TERT1, Day 3, 3 μM (Table 2)
[13] = PTEC-TERT1, Day 3, 10 μM (Table 2)
[14] = PTEC-TERT1, Day 3, 11 μM (Table 3)
[15] = PTEC-TERT1, Day 3, 30 μM (Table 2)
[16] = PTEC-TERT1, Day 3, 33 μM (Table 3)
[17] = PTEC-TERT1, Day 3, 100 μM (Table 2)
[18] = PTEC-TERT1, Day 3, 100 μM (Table 3)
[19] = PTEC-TERT1, Day 6, 3 μM (Table 2)
[20] = PTEC-TERT1, Day 6, 10 μM (Table 2)
[21] = PTEC-TERT1, Day 6, 30 μM (Table 2)
[22] = PTEC-TERT1, Day 6, 100 μM (Table 2)
[23] = PTEC-TERT1, Day 7, 11 μM (Table 3)
[24] = PTEC-TERT1, Day 7, 33 μM (Table 3)
[25] = PTEC-TERT1, Day 7, 100 μM (Table 3)
[26] = PTEC-TERT1, Day 10, 11 μM (Table 3)
[27] = PTEC-TERT1, Day 10, 33 μM (Table 3)
[28] = PTEC-TERT1, Day 10, 100 μM (Table 3)
[29] = PTEC-TERT1, EGF 0 ng/ml in medium
[30] = PTEC-TERT1, EGF 10 ng/ml in medium

Substance: GCtgtgtgagcttGG (antisense GCTGTGTGAGCTTGG; sugars from the 5' end l2 d11 l2, backbone and methylation of C not given here) [Compound 4-1]
- EGF ([1]; 1 ng oligonucleotide): 132 % saline
- EGF ([1]; 10 ng oligonucleotide): 211 % saline
- ATP ([2]; 1 ng oligonucleotide): 93 % saline
- ATP ([2]; 10 ng oligonucleotide): 51 % saline
- In vivo nephrotoxicity / in vivo grade of toxicity [3]: high and High and Sever tox
- EGF [4, 8]: 731.7 pg/mL
- EGF [4, 9]: 1957.8 pg/mL
- EGF ([4]; PTEC-TERT1, 6 days, 10 μM oligonucleotide (Table 7)): 2622 % saline
- Toxicity grade ([4]; PTEC-TERT1, 6 days, 10 μM): 100
- EGF ([4]; PTEC-TERT1, 6 days, 30 μM oligonucleotide (Table 7)): 7311 % saline
- Toxicity grade ([4]; PTEC-TERT1, 6 days, 30 μM): 100
- EGF [4, 10]: 5.4 pg/mL
- EGF [4, 11]: 5.3 pg/mL
- EGF [4, 12]: 71 % saline
- EGF [4, 13]: 116 % saline
- EGF [4, 14]: 225 % saline
- EGF [4, 15]: 302 % saline
- EGF [4, 16]: 368 % saline
- EGF [4, 17]: 1572 % saline
- EGF [4, 18]: 484 % saline
- EGF [4, 19]: 37 % saline
- EGF [4, 20]: 222 % saline
- EGF [4, 21]: 8398 % saline
- EGF [4, 22]: 8899 % saline
- EGF [4, 23]: 637 % saline
- EGF [4, 24]: 983 % saline
- EGF [4, 25]: 983 % saline
- EGF [4, 26]: 1177 % saline
- EGF [4, 27]: 1865 % saline
- EGF [4, 28]: 1792 % saline
- EGF ([5]; Day 3, 3 μM): 198 % saline
- EGF ([5]; Day 3, 10 μM): 323 % saline
- EGF ([5]; Day 3, 30 μM): 373 % saline
- EGF ([5]; Day 3, 100 μM): 631 % saline
- EGF ([5]; Day 6, 3 μM): 525 % saline
- EGF ([5]; Day 6, 10 μM): 1171 % saline
- EGF ([5]; Day 6, 30 μM): 1588 % saline
- EGF ([5]; Day 6, 100 μM): 1403 % saline
- EGF ([6]; day 3, 10 μM): 323 % saline
- EGF ([6]; day 3, 100 μM): 985 % saline
- PCSK9 mRNA [7, 29]: 6.84 % of saline
- PCSK9 mRNA [7, 30]: 1.47 % of saline

Substance: TGCtacaaaacCCA (antisense TGCTACAAAACCCA; sugars from the 5' end l3 d8 l3, backbone and methylation of C not given here) [Compound 3-1]
- EGF ([1]; 1 ng oligonucleotide): 99 % saline
- EGF ([1]; 10 ng oligonucleotide): 199 % saline
- ATP ([2]; 1 ng oligonucleotide): 91 % saline
- ATP ([2]; 10 ng oligonucleotide): 44 % saline
- In vivo nephrotoxicity / in vivo grade of toxicity [3]: Medium
- EGF [4, 8]: 245.0 pg/mL
- EGF [4, 9]: 341.8 pg/mL
- EGF [4, 10]: 6.3 pg/mL
- EGF [4, 11]: 12.2 pg/mL
- EGF [4, 12]: 70 % saline
- EGF [4, 13]: 75 % saline
- EGF [4, 14]: 151 % saline
- EGF [4, 15]: 70 % saline
- EGF [4, 16]: 213 % saline
- EGF [4, 17]: 128 % saline
- EGF [4, 18]: 207 % saline
- EGF [4, 19]: 124 % saline
- EGF [4, 20]: 137 % saline
- EGF [4, 21]: 231 % saline
- EGF [4, 22]: 2413 % saline
- EGF [4, 23]: 168 % saline
- EGF [4, 24]: 287 % saline
- EGF [4, 25]: 493 % saline
- EGF [4, 26]: 41 % saline
- EGF [4, 27]: 138 % saline
- EGF [4, 28]: 227 % saline
- EGF ([5]; Day 3, 3 μM): 114 % saline
- EGF ([5]; Day 3, 10 μM): 139 % saline
- EGF ([5]; Day 3, 30 μM): 134 % saline
- EGF ([5]; Day 3, 100 μM): 269 % saline
- EGF ([5]; Day 6, 3 μM): 152 % saline
- EGF ([5]; Day 6, 10 μM): 286 % saline
- EGF ([5]; Day 6, 30 μM): 653 % saline
- EGF ([5]; Day 6, 100 μM): 915 % saline
- EGF ([6]; day 3, 10 μM): 227 % saline
- EGF ([6]; day 3, 100 μM): 411 % saline
- PCSK9 mRNA [7, 29]: 2.28 % of saline
- PCSK9 mRNA [7, 30]: 1.46 % of saline

Source: US11105794B2, “In vitro nephrotoxicity screening assay” (Hoffmann-La Roche Inc., priority 2016, dated 2021)
